Data taken from publication PMC9542285, “Novel amides of mycophenolic acid and some heterocyclic derivatives as immunosuppressive agents” (Journal of Enzyme Inhibition and Medicinal Chemistry, 2022).

Columns and labels:
PBMCs [1] = assay: In vitro cytotoxicity assay with XTT dye, PBMCs; format: cell-based, human; settings: Homo sapiens, PBMC, 72 h incubation then 24 h XTT, read-out: IC50 PBMCs (XTT test)
Experimental: (§1) Figure 2. Representative dose-response curve to determine the IC50 of MPA and A2. […] Next, plates were incubated for 24 h with XTT reagent. The conversion of water-soluble yellow tetrazolium XTT salt into orange formazan was monitored by measuring the optical density at 450 nm on microplate spectrophotometer. For XTT assay at least three experiments were performed and values are presented as mean ± SD.
(§2) The cytotoxic effect of derivatives of MPA was measured using in vitro 2,3-bis(2-methoxy-4-nitro-5-sulfophenyl)-2H-tetrazolium-5-carboxanilide (XTT)-based assay (Roche, Basel, Swiss). PBMCs suspended in complete X–VIVO20 medium and T-Jurkat cells suspended in complete RPMI-1640 medium were added on a 96-well plate at a concentration of 5 × 10^5 cells/50 µL/well. […] As a background control we used medium without cells, as a positive control we used cells untreated with compounds. After 48 h for T-Jurkat cells and 72 h for PBMCs of incubation in a humidified atmosphere with 5% CO2 at 37 °C, 50 µL of XTT reagent (freshly prepared according to the manufacturer’s procedure) was added to all samples. Plates were incubated for 24 h (5% CO2 at 37 °C). The conversion of water-soluble yellow tetrazolium XTT salt into orange formazan was monitored by measuring the optical density (OD) at 450 nm on Agilent BioTek Epoch Microplate Spectrophotometer (Agilent Technologies, Santa Clara, CA), with a background wavelength at 690 nm. […] Each sample was performed in triplicates.

[2] = In vitro cytotoxicity assay with XTT dye, T-Jurkat; format: cell-based, human; settings: human, T-Jurkat cell line, […], trypan blue exclusion
Experimental: as §1, §2

[3] = Dye-based proliferation assay VPD450 (flow cytometry), T-Jurkat; format: cell-based, human; settings: human, VPD450-labelled T-Jurkat cells, […], trypan blue exclusion
Experimental: (§3) Figure 4. […] Cell proliferation was analysed using flow cytometry.

PBMCs [4] = assay: cells; settings: Homo sapiens, PBMC, 72 h, read-out: EC50 PBMCs (VPD450 proliferation), PBMCs stimulated with anti-CD3/anti-CD28 beads, 72 h
Experimental: Cell proliferation was analysed using flow cytometry. The results are expressed as the mean ± SD.
PBMCs and T-Jurkat cells were washed twice with warm PBS (37 °C), suspended in fresh PBS at a final concentration of 10–30 × 10^6 cells/mL and labelled with 1 µL of VPD450 (BD Biosciences, Franklin Lakes, NJ) at 37 °C for 15 min. Each 5 min cells were vortexed to provide uniform staining[42]^,[43]. Subsequently, cells were washed with PBS and then with complete medium (X-VIVO20 for PBMCs and RPMI-1640 for T-Jurkat cells). After this step, cells were suspended in fresh complete medium, seeded on 96-well plates (1 × 10^6 cells/well). PBMCs were additionally stimulated with magnetic beads coated with anti-CD3 and anti-CD28 antibodies (Invitrogen, Carlsbad, CA) in 1:0.5 cell:bead ratio. Of 100 µL of examined derivatives of MPA were added to experimental wells to receive final concentrations: 100; 10; 1; 0.1; 0.01 µM. In parallel, stained and not stimulated cells, as well as stained and stimulated cells, were seeded in the same concentration as controls. After 48 h for T-Jurkat and 72 h for PBMCs, cells were analysed with flow cytometer LSRFortessa (BD Biosciences, Franklin Lakes, NJ) and Kaluza C Flow Cytometry Analysis Software (Beckman Coulter, Brea, CA). […] Cell viability was determined at the highest concentration of the tested compound. For this purpose, TC20 cell counter (Biorad) was used with trypan blue exclusion.

T-Jurkat cell line = assay: In vitro cytotoxicity assay with XTT dye, T-Jurkat; format: cell-based, human; settings: Homo sapiens, 48 h incubation then 24 h XTT, read-out: IC50 T-Jurkat (XTT test)
Experimental: as §1, §2

T-Jurkat cells = assay: Dye-based proliferation assay VPD450 (flow cytometry), T-Jurkat; format: cell-based, human; settings: Homo sapiens, 48 h
Experimental: as §3

PBMCs [5] = assay: VPD450 proliferation of PBMCs with or without GMP (IMPDH mechanism test); format: cell-based, human; settings: for Mechanism of action (IMPDH inhibition, GMP reversal): PBMCs, with or without 50 µM GMP, 72 h
Experimental: According to reported experiment, suppression of cell proliferation caused by IMPDH inhibitors in the presence of guanosine source, e.g. gunosine monophosphate (GMP) is reversible.
Figure 5. […] Cell proliferation was analysed using flow cytometry.
Cells proliferation was analyzed using flow cytometry.
(1 picture or pasted object on this page, not shown here)

[6] = Precipitation / solubility of compounds in culture; format: physicochemical; set-up: key to Precipitating compound flag (XTT test, PBMCs) / Precipitating compound flag (VPD450 assay, PBMCs): (↓) – precipitating compound; settings: for Precipitating compound flag (VPD450 assay, PBMCs) / Precipitating compound flag (XTT test, PBMCs): PBMC culture, DMSO with Tween20; for Solubility in PBMC culture: XTT assay conditions
Experimental: Drug toxicity that affects the cells can cause a variety of serious side effects, including uncontrolled suppression of the immune system. In order to check the cytotoxicity of the tested compounds, the XTT test was performed, the results of which are presented in Table 2. All tested compounds were characterised by lower cytotoxicity than native MPA. Unfortunately, several compounds (marked with ↓) were partially insoluble in culture despite surfactant addition. They were investigated too, but one could not use them as an immunosuppressive drug in their current form. Taking into account the EC50 values obtained in the proliferation tests ([…] staining, Table 3), the compound A2 was selected as the one with the highest immunosuppressive potential and the possibility of its later use in therapy, and is presented in the graphs (Figures 2–4).
To prepare appropriate concentrations of tested compounds, the substances were dissolved in DMSO (Sigma Aldrich, Poland) with 1% addition of Tween20 to obtain final concentration of 0.01 M. The solution was diluted 10-fold and then 5-fold in appropriate medium without additives (RPMI-1640 for T-Jurkat cell line; X-VIVO20 for PBMCs) to obtain the following concentrations: 200; 20; 2; 0.2; 0.02 µM.

Row | SMILES | IC50 (PBMCs [1]) | viability at 48 h, 100 µM [2] | viability at 48 h, 100 µM [3] | melting point | EC50 (PBMCs [4]) | IC50 (T-Jurkat cell line) | EC50 (T-Jurkat cells) | Mechanism of action (IMPDH inhibition, GMP reversal) (PBMCs [5]) | Precipitating compound flag (VPD450 assay, PBMCs) [6] | Precipitating compound flag (XTT test, PBMCs) [6] | Solubility in PBMC culture [6] | Effect of GMP addition on proliferation (PBMCs [5])
1 | COc1c(C)c2c(c(O)c1C/C=C(\C)CCC(=O)Nc1nc3ccccc3[nH]1)C(=O)OC2 [A3, N-(1H-benzo[d]imidazol-2-yl) mycophenolate] | 94.538 ± 0.047 µM | 74% | 55% | 253 to 255 °C (dec.) | 120 µM | – | – | – | – | – | – | –
2 | COc1c(C)c2c(c(O)c1C/C=C(\C)CCC(=O)Nc1ccc3ncsc3c1)C(=O)OC2 [A4, N-(benzo[d]thiazol-6-yl) mycophenolate] | 24.639 ± 0.015 µM | – | – | 175 to 177 °C | 62.26 ± 0.01 µM | 37.789 ± 0.002 µM | 14.73 ± 0.074 µM | – | – | – | – | –
3 | COc1c(C)c2c(c(O)c1C/C=C(\C)CCC(=O)Nc1ccc3scnc3c1)C(=O)OC2 [A5, N-(benzo[d]thiazol-5-yl) mycophenolate] | 45.73 ± 0.023 µM | – | – | 114 to 117 °C | 76.98 ± 0.01 µM | 75.04 ± 0.005 µM | 36.05 ± 0.18 µM | – | – | – | – | –
4 | COc1c(C)c2c(c(O)c1C/C=C(\C)CCC(=O)Nc1ccc3ocnc3c1)C(=O)OC2 [A6, N-(benzo[d]oxazol-5-yl) mycophenolate] | 55.487 ± 0.028 µM | – | – | 84 to 87 °C | 58.27 ± 0.021 µM | 31.407 ± 0.002 µM | 13.84 ± 0.069 µM | – | – | – | – | –
5 | COc1c(C)c2c(c(O)c1C/C=C(\C)CCC(=O)NCc1ncccn1)C(=O)OC2 [A7, N-[1-(pirymidin-2-yl)methyl] mycophenolate] | 70.48 ± 0.035 µM | – | – | 107 to 110 °C | 29.45 ± 0.025 µM | 10.739 ± 0.003 µM | 9.51 ± 0.047 µM | consistent with that of MPA | – | – | – | –
6 | COc1ccc2nc(NC(=O)CC/C(C)=C/Cc3c(O)c4c(c(C)c3OC)COC4=O)sc2c1 [A8, N-(6-methoxybenzo[d]thiazol-2-yl) mycophenolate] | 93.196 ± 0.047 µM | – | – | – | 133.5 ± 0.007 µM | 51.124 ± 0.008 µM | 22.04 ± 0.11 µM | – | (↓) | (↓) | limited solubility | –
7 | COc1c(C)c2c(c(O)c1C/C=C(\C)CCC(=O)Nc1nc3ccc(C)cc3s1)C(=O)OC2 [A9, N-(6-methylbenzo[d]thiazol-2-yl) mycophenolate] | 94.6 ± 0.047 µM | – | – | 257 to 260 °C (dec.) | 136.2 ± 0.011 µM | 85.7 ± 0.004 µM | 22.72 ± 0.113 µM | – | (↓) | (↓) | limited solubility | –
8 | COc1c(C)c2c(c(O)c1C/C=C(\C)CCC(=O)Nc1nc3cc(C)c(C)cc3s1)C(=O)OC2 [A10, N-(5,6-dimethylbenzo[d]thiazol-2-yl) mycophenolate] | 129.41 ± 0.064 µM | 51% | – | 246 to 247 °C (dec.) | 85.24 ± 0.012 µM | – | 26.69 ± 0.133 µM | – | – | – | – | –
9 | COc1c(C)c2c(c(O)c1C/C=C(\C)CCC(=O)Nc1nc3ccc(F)cc3s1)C(=O)OC2 [A11, N-(6-fluorobenzo[d]thiazol-2-yl) mycophenolate] | 139.86 ± 0.07 µM | 56% | – | 232 to 236 °C (dec.) | 83.07 ± 0.012 µM | – | 63.21 ± 0.316 µM | – | (↓) | (↓) | limited solubility | –
10 | COc1c(C)c2c(c(O)c1C/C=C(\C)CCC(=O)Nc1nc3ccc(Cl)cc3s1)C(=O)OC2 [A12, N-(6-chlorobenzo[d]thiazol-2-yl) mycophenolate] | 62.975 ± 0.031 µM | – | – | 261 to 264 °C (dec.) | 38.37 ± 0.017 µM | 12.833 ± 0.008 µM | 12.16 ± 0.061 µM | – | (↓) | (↓) | limited solubility | –
11 | COc1c(C)c2c(c(O)c1C/C=C(\C)CCC(=O)Nc1nc3ccc(Br)cc3s1)C(=O)OC2 [A13, N-(6-bromobenzo[d]thiazol-2-yl) mycophenolate] | 63.173 ± 0.032 µM | – | – | 265 to 267 °C (dec.) | 39.47 ± 0.013 µM | 58.069 ± 0.002 µM | 12.64 ± 0.063 µM | – | – | – | – | –
12 | COc1c(C)c2c(c(O)c1C/C=C(\C)CCC(=O)Nc1nc3ccc(C(F)(F)F)cc3s1)C(=O)OC2 [A14, N-[6-(trifluoromethyl)benzo[d]thiazol-2-yl] mycophenolate] | 81.482 ± 0.041 µM | – | – | 261 to 264 °C (dec.) | 30.71 ± 0.008 µM | 34.749 ± 0.003 µM | 12.58 ± 0.063 µM | – | – | – | – | –
13 | COc1c(C)c2c(c(O)c1C/C=C(\C)CCC(=O)Nc1nc3ccc([N+](=O)[O-])cc3s1)C(=O)OC2 [A15, N-(6-nitrobenzo[d]thiazol-2-yl) mycophenolate] | 137.63 ± 0.069 µM | – | – | 278 to 280 °C (dec.) | 44.59 ± 0.013 µM | 12.717 ± 0.005 µM | 13.37 ± 0.067 µM | – | (↓) | (↓) | limited solubility | –
14 | COc1c(C)c2c(c(O)c1C/C=C(\C)CCC(=O)Nc1nc3c(OC)cccc3s1)C(=O)OC2 [A16, N-(4-methoxybenzo[d]thiazol-2-yl) mycophenolate] | 54.578 ± 0.027 µM | 69% | 73% | 165 to 168 °C | 46.29 ± 0.011 µM | – | – | – | (↓) | (↓) | limited solubility | –
15 | COc1c(C)c2c(c(O)c1C/C=C(\C)CCC(=O)Nc1nc3c(Cl)cccc3s1)C(=O)OC2 [A18, N-(4-chlorobenzo[d]thiazol-2-yl) mycophenolate] | 74.426 ± 0.037 µM | – | – | – | 14.7 ± 0.02 µM | 10.261 ± 0.001 µM | 11.28 ± 0.056 µM | consistent with that of MPA | – | – | – | –
16 | COc1c(C)c2c(c(O)c1C/C=C(\C)CCC(=O)O)C(=O)OC2 [MPA, Mycophenolic acid] | 10.52 ± 0.015 µM | – | – | – | 0.723 ± 0.011 µM | 0.509 ± 0.008 µM | 0.49 ± 0.002 µM | – | – | – | – | proliferation increases after the addition of GMP
